{"source": "ChEMBL document CHEMBL4616582", "about": "“Green recipes to quinoline: A review” (Eur J Med Chem, 2019)", "key": {"B16-F10": {"system": "B16-F10", "assay": "Cytotoxicity against mouse B16F10 cells assessed as reduction in cell viability", "assay_type": "functional, cell-based"}, "HepG2": {"system": "HepG2", "assay": "Cytotoxicity against human HepG2 cells assessed as reduction in cell viability by MTT assay", "assay_type": "functional, cell-based"}, "Plasmodium falciparum": {"system": "Plasmodium falciparum", "assay": "Antimalarial activity against chloroquine and quinine sensitive Plasmodium falciparum", "assay_type": "functional, organism-based"}, "Bacillus subtilis": {"system": "Bacillus subtilis", "assay": "Antibacterial activity against Bacillus subtilis MTCC 121 after 24 hrs by agar well diffusion method", "assay_type": "functional", "conditions": "MTCC 121, 24 h"}}, "data": [{"compound": "O=Cc1c(Cl)cccc1Cl", "values": [{"measurement": "IC50", "setting": "B16-F10", "value": 70.7, "unit": "µM"}]}, {"compound": "O=Cc1ccc(Cl)cc1", "values": [{"measurement": "IC50", "setting": "B16-F10", "value": 70.7, "unit": "µM"}]}, {"compound": "O=Cc1ccc(Cl)cc1Cl", "values": [{"measurement": "IC50", "setting": "B16-F10", "value": 70.7, "unit": "µM"}]}, {"compound": "O=Cc1cccc(Br)c1", "values": [{"measurement": "IC50", "setting": "B16-F10", "value": 70.7, "unit": "µM"}]}, {"compound": "O=Cc1ccc([N+](=O)[O-])cc1", "values": [{"measurement": "IC50", "setting": "B16-F10", "value": 70.7, "unit": "µM"}]}, {"compound": "Cc1ccc(C=O)cc1", "values": [{"measurement": "IC50", "setting": "B16-F10", "value": 70.7, "unit": "µM"}]}, {"compound": "O=c1cc(O)c2cc(Br)ccc2o1", "values": [{"measurement": "IC50", "setting": "B16-F10", "value": 70.7, "unit": "µM"}]}, {"compound": "CC(=O)c1ccc(F)cc1", "values": [{"measurement": "IC50", "setting": "HepG2", "value": 984, "unit": "nM"}]}, {"compound": "O=Cc1ccc(F)cc1", "values": [{"measurement": "IC50", "setting": "B16-F10", "value": 70.7, "unit": "µM"}]}, {"compound": "O=Cc1ccccc1Br", "values": [{"measurement": "IC50", "setting": "B16-F10", "value": 70.7, "unit": "µM"}]}, {"compound": "O=Cc1cccc2ccccc12", "values": [{"measurement": "IC50", "setting": "B16-F10", "value": 70.7, "unit": "µM"}]}, {"compound": "O=Cc1ccc(Br)cc1", "values": [{"measurement": "IC50", "setting": "B16-F10", "value": 70.7, "unit": "µM"}]}, {"compound": "O=c1cc(O)c2cc(Cl)ccc2o1", "values": [{"measurement": "IC50", "setting": "B16-F10", "value": 70.7, "unit": "µM"}]}, {"compound": "CC(=O)c1ccc(Br)cc1", "values": [{"measurement": "IC50", "setting": "HepG2", "value": 984, "unit": "nM"}]}, {"compound": "COc1ccc(NN2C(N)=C(C#N)C(c3c(C)nn(-c4ccccc4)c3Oc3cccc(C(F)(F)F)c3)C3=C2CC(C)(C)CC3=O)cc1", "note": "(stereo not drawn)", "values": [{"measurement": "IC50", "setting": "Plasmodium falciparum", "value": "0.042 to 0.09", "unit": "µg/mL"}]}, {"compound": "O=Cc1ccc(C(F)(F)F)cc1", "values": [{"measurement": "IC50", "setting": "B16-F10", "value": 70.7, "unit": "µM"}]}, {"compound": "O=c1oc2ccccc2c2nc3c(ccc4cc[nH]c43)c(-c3c(Cl)cccc3Cl)c12", "values": [{"measurement": "IC50", "setting": "B16-F10", "value": 70.7, "unit": "µM"}]}, {"compound": "O=c1c2ccc(Br)cc2n(-c2ccccc2)c2ss/c(=N\\c3ccccc3)c12", "values": [{"measurement": "IC50", "setting": "HepG2", "value": 984, "unit": "nM"}]}, {"compound": "CC1(C)CC(=O)C2=C(C1)N(c1ccc(Br)cc1)C(=O)C21C2=C(Nc3ccccc31)c1ccccc1C2=O", "note": "(stereo not drawn)", "values": [{"measurement": "MIC", "setting": "Bacillus subtilis", "value": 8, "unit": "µg/mL"}]}, {"compound": "Cc1nn(-c2ccccc2)c(Oc2cccc(C(F)(F)F)c2)c1C1C(C#N)=C(N)N(Nc2ccc(Br)cc2)C2=C1C(=O)CC(C)(C)C2", "note": "(stereo not drawn)", "values": [{"measurement": "IC50", "setting": "Plasmodium falciparum", "value": "0.042 to 0.09", "unit": "µg/mL"}]}, {"compound": "COc1ccc(N2C(=O)C3(C4=C(Nc5ccc(Br)cc53)c3ccccc3C4=O)C3=C2CCCC3=O)cc1", "note": "(stereo not drawn)", "values": [{"measurement": "MIC", "setting": "Bacillus subtilis", "value": 8, "unit": "µg/mL"}]}, {"compound": "O=c1c2c(Cl)ccc(Cl)c2n(-c2ccccc2)c2ss/c(=N\\c3ccccc3)c12", "values": [{"measurement": "IC50", "setting": "HepG2", "value": 984, "unit": "nM"}]}, {"compound": "CC(=O)c1ccccc1Cl", "values": [{"measurement": "IC50", "setting": "HepG2", "value": 984, "unit": "nM"}]}, {"compound": "COc1ccc(NN2C(N)=C(C#N)C(c3c(C)nn(-c4ccccc4)c3Oc3ccccc3F)C3=C2CC(C)(C)CC3=O)cc1", "note": "(stereo not drawn)", "values": [{"measurement": "IC50", "setting": "Plasmodium falciparum", "value": "0.042 to 0.09", "unit": "µg/mL"}]}, {"compound": "CC1(C)CC(=O)C2=C(C1)N(c1ccccc1)C(=O)C21C2=C(Nc3ccc([N+](=O)[O-])cc31)c1ccccc1C2=O", "note": "(stereo not drawn)", "values": [{"measurement": "MIC", "setting": "Bacillus subtilis", "value": 8, "unit": "µg/mL"}]}, {"compound": "O=c1c2ccc(Cl)cc2n(-c2ccccc2)c2ss/c(=N\\c3ccccc3)c12", "values": [{"measurement": "IC50", "setting": "HepG2", "value": 984, "unit": "nM"}]}, {"compound": "Cc1ccc(-c2c3ccc4cc[nH]c4c3nc3c2c(=O)oc2ccccc23)cc1", "values": [{"measurement": "IC50", "setting": "B16-F10", "value": 70.7, "unit": "µM"}]}, {"compound": "CC1(C)CC(=O)C2=C(C1)N(c1ccc(Cl)cc1)C(=O)C21C2=C(Nc3ccccc31)c1ccccc1C2=O", "note": "(stereo not drawn)", "values": [{"measurement": "MIC", "setting": "Bacillus subtilis", "value": 8, "unit": "µg/mL"}]}, {"compound": "O=c1oc2ccccc2c2nc3c(ccc4cc[nH]c43)c(-c3cccc4ccccc34)c12", "values": [{"measurement": "IC50", "setting": "B16-F10", "value": 70.7, "unit": "µM"}]}, {"compound": "O=C1CCCC2=C1C1(C(=O)N2C2CCCCC2)C2=C(Nc3ccc(Br)cc31)c1ccccc1C2=O", "note": "(stereo not drawn)", "values": [{"measurement": "MIC", "setting": "Bacillus subtilis", "value": 8, "unit": "µg/mL"}]}, {"compound": "CC(=O)c1cc(Cl)ccc1Cl", "values": [{"measurement": "IC50", "setting": "HepG2", "value": 984, "unit": "nM"}]}, {"compound": "O=c1c2cc(Cl)c(Cl)cc2n(-c2ccccc2)c2ss/c(=N\\c3ccccc3)c12", "values": [{"measurement": "IC50", "setting": "HepG2", "value": 984, "unit": "nM"}]}, {"compound": "O=c1c2c(Cl)cccc2n(-c2ccccc2)c2ss/c(=N\\c3ccccc3)c12", "values": [{"measurement": "IC50", "setting": "HepG2", "value": 984, "unit": "nM"}]}, {"compound": "COc1ccc(N2C(=O)C3(C4=C(Nc5ccccc53)c3ccccc3C4=O)C3=C2CC(C)(C)CC3=O)cc1", "note": "(stereo not drawn)", "values": [{"measurement": "MIC", "setting": "Bacillus subtilis", "value": 8, "unit": "µg/mL"}]}, {"compound": "Cc1nn(-c2ccccc2)c(Oc2cccc(F)c2)c1C1C(C#N)=C(N)N(Nc2ccc(Br)cc2)C2=C1C(=O)CC(C)(C)C2", "note": "(stereo not drawn)", "values": [{"measurement": "IC50", "setting": "Plasmodium falciparum", "value": "0.042 to 0.09", "unit": "µg/mL"}]}, {"compound": "O=C1CCCC2=C1C1(C(=O)N2c2ccccc2)C2=C(Nc3ccc(Br)cc31)c1ccccc1C2=O", "note": "(stereo not drawn)", "values": [{"measurement": "MIC", "setting": "Bacillus subtilis", "value": 8, "unit": "µg/mL"}]}, {"compound": "Cc1ccc(N2C(=O)C3(C4=C(Nc5ccc([N+](=O)[O-])cc53)c3ccccc3C4=O)C3=C2CCCC3=O)cc1", "note": "(stereo not drawn)", "values": [{"measurement": "MIC", "setting": "Bacillus subtilis", "value": 8, "unit": "µg/mL"}]}, {"compound": "O=c1oc2ccccc2c2nc3c(ccc4cc[nH]c43)c(-c3ccc(Cl)cc3Cl)c12", "values": [{"measurement": "IC50", "setting": "B16-F10", "value": 70.7, "unit": "µM"}]}, {"compound": "O=c1oc2ccccc2c2nc3c(ccc4cc[nH]c43)c(-c3ccc(Br)cc3)c12", "values": [{"measurement": "IC50", "setting": "B16-F10", "value": 70.7, "unit": "µM"}]}, {"compound": "O=C1CCCC2=C1C1(C(=O)N2c2ccc(Br)cc2)C2=C(Nc3ccc(Br)cc31)c1ccccc1C2=O", "note": "(stereo not drawn)", "values": [{"measurement": "MIC", "setting": "Bacillus subtilis", "value": 8, "unit": "µg/mL"}]}, {"compound": "O=c1oc2ccccc2c2nc3c(ccc4cc[nH]c43)c(-c3ccccc3Br)c12", "values": [{"measurement": "IC50", "setting": "B16-F10", "value": 70.7, "unit": "µM"}]}, {"compound": "COc1ccc(NN2C(N)=C(C#N)C(c3c(C)nn(-c4ccccc4)c3Oc3cccc(F)c3)C3=C2CC(C)(C)CC3=O)cc1", "note": "(stereo not drawn)", "values": [{"measurement": "IC50", "setting": "Plasmodium falciparum", "value": "0.042 to 0.09", "unit": "µg/mL"}]}, {"compound": "COc1ccc(-c2c3ccc4cc[nH]c4c3nc3c2c(=O)oc2ccccc23)cc1", "values": [{"measurement": "IC50", "setting": "B16-F10", "value": 70.7, "unit": "µM"}]}, {"compound": "O=c1oc2ccccc2c2nc3c(ccc4cc[nH]c43)c(-c3ccc([N+](=O)[O-])cc3)c12", "values": [{"measurement": "IC50", "setting": "B16-F10", "value": 70.7, "unit": "µM"}]}, {"compound": "Cc1nn(-c2ccccc2)c(Oc2cccc(C(F)(F)F)c2)c1C1C(C#N)=C(N)N(Nc2ccc(F)cc2)C2=C1C(=O)CC(C)(C)C2", "note": "(stereo not drawn)", "values": [{"measurement": "IC50", "setting": "Plasmodium falciparum", "value": "0.042 to 0.09", "unit": "µg/mL"}]}, {"compound": "O=C1CCCC2=C1C1(C(=O)N2c2ccc(Cl)cc2)C2=C(Nc3ccc([N+](=O)[O-])cc31)c1ccccc1C2=O", "note": "(stereo not drawn)", "values": [{"measurement": "MIC", "setting": "Bacillus subtilis", "value": 8, "unit": "µg/mL"}]}, {"compound": "Cc1nn(-c2ccccc2)c(Oc2ccccc2F)c1C1C(C#N)=C(N)N(Nc2ccc(F)cc2)C2=C1C(=O)CC(C)(C)C2", "note": "(stereo not drawn)", "values": [{"measurement": "IC50", "setting": "Plasmodium falciparum", "value": "0.042 to 0.09", "unit": "µg/mL"}]}, {"compound": "CC(=O)c1ccc(Cl)c(Cl)c1", "values": [{"measurement": "IC50", "setting": "HepG2", "value": 984, "unit": "nM"}]}]}
